Experimental data as given in the kinase profiling compilation of Christmann-Franck et al. (2016).

Assays:
Test in all cases: KINOMEscan competition binding
[1] = target: TAOK1 (human) (UniProt Q7L7X3); conditions: compound 10.0 µM
[2] = target: MYLK2 (human) (UniProt Q9H1R3); conditions: compound 10.0 µM
[3] = target: MAP3K5 (human) (UniProt Q99683); conditions: compound 10.0 µM
[4] = target: CaMK1 (human) (UniProt Q14012); conditions: compound 10.0 µM
[5] = target: MAPK13 (human) (UniProt O15264); conditions: compound 10.0 µM
[6] = target: CSK (human) (UniProt P41240); conditions: compound 10.0 µM
CSK (human), sequence (P41240 whole entry, looked up): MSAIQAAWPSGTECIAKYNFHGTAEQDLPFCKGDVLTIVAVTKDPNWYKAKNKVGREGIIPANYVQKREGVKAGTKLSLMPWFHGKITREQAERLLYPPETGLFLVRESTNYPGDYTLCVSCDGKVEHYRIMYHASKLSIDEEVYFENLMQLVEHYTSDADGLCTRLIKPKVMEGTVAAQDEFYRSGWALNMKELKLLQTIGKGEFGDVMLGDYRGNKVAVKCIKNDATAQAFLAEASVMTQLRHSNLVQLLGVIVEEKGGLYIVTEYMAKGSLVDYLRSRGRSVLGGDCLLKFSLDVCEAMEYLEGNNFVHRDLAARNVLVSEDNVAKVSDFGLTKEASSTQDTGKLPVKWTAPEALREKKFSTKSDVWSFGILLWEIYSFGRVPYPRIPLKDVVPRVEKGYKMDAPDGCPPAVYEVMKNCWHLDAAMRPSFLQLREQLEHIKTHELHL

[7] = target: RIPK1 (human) (UniProt Q13546); conditions: compound 10.0 µM
[8] = target: MARK4 (human) (UniProt Q96L34); conditions: compound 10.0 µM
[9] = target: PLK4 (human) (UniProt O00444); conditions: compound 10.0 µM
[10] = target: ABL2 (human) (UniProt P42684); conditions: compound 10.0 µM
[11] = tested on: FLT3 (human), P36888 [ITD]; conditions: compound 10.0 µM
[12] = target: CAMKK2 (human) (UniProt Q96RR4); conditions: compound 10.0 µM
[13] = target: STK32C (human) (UniProt Q86UX6); conditions: compound 10.0 µM
[14] = target: PIK3CD (human) (UniProt O00329); conditions: compound 10.0 µM
[15] = target: EPHA3 (human) (UniProt P29320); conditions: compound 10.0 µM
[16] = target: STK16 (human) (UniProt O75716); conditions: compound 10.0 µM
[17] = target: FLT1 (human) (UniProt P17948); conditions: compound 10.0 µM
[18] = target: MAP4K3 (human) (UniProt Q8IVH8); conditions: compound 10.0 µM
[19] = target: AXL (human) (UniProt P30530); conditions: compound 10.0 µM
[20] = target: MAPK1 (human) (UniProt P28482)
MAPK1 (human), sequence (P28482 whole entry, looked up): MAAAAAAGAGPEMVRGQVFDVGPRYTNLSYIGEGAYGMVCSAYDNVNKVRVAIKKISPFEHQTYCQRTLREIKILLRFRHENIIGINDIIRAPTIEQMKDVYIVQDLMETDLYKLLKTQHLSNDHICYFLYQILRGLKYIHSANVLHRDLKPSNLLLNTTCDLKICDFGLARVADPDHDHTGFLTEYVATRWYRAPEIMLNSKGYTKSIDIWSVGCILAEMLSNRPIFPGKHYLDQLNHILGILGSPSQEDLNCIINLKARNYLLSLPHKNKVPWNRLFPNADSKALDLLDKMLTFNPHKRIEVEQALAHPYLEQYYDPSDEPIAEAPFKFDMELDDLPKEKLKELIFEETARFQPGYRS

[21] = tested on: PIK3CA (human), P42336 [E545K]; conditions: compound 10.0 µM
PIK3CA (human), P42336 [E545K], sequence (P42336 whole entry E545K, looked up): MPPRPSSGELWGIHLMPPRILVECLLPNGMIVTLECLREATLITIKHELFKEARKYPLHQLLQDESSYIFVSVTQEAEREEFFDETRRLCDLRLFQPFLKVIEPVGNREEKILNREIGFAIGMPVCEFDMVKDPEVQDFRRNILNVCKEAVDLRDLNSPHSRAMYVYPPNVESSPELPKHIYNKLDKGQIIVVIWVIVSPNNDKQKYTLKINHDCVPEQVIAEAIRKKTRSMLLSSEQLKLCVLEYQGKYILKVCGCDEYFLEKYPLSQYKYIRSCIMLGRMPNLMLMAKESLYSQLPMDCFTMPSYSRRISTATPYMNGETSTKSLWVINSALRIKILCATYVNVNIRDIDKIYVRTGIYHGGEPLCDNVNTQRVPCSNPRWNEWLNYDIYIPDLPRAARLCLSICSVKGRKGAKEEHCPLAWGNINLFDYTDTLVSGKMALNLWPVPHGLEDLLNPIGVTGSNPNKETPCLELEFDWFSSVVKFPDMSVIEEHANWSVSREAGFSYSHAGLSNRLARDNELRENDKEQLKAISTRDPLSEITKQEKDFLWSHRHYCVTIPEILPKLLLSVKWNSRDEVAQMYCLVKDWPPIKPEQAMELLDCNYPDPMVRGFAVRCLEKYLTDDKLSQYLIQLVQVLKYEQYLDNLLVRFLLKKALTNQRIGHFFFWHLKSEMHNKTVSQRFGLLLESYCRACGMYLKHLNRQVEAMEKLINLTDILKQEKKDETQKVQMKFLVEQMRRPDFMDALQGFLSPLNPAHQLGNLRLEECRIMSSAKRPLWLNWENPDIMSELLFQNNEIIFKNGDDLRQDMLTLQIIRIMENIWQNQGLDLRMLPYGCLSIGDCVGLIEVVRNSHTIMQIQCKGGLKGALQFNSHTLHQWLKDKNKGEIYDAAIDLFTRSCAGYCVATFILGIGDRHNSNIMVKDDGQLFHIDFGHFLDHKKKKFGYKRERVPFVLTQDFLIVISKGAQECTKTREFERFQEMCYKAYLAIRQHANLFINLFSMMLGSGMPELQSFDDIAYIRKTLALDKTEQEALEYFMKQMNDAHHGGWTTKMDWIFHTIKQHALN

[22] = target: RIOK1 (human) (UniProt Q9BRS2); conditions: compound 10.0 µM
[23] = target: STK17A (human) (UniProt Q9UEE5); conditions: compound 10.0 µM
[24] = target: EPHB4 (human) (UniProt P54760); conditions: compound 10.0 µM
[25] = target: LIMK2 (human) (UniProt P53671); conditions: compound 10.0 µM
[26] = target: CAMKK1 (human) (UniProt Q8N5S9); conditions: compound 10.0 µM
[27] = target: WEE1 (human) (UniProt P30291); conditions: compound 10.0 µM
[28] = target: PRKAA2 (human) (UniProt P54646); conditions: compound 10.0 µM
[29] = target: PKN2 (human) (UniProt Q16513); conditions: compound 10.0 µM
[30] = target: PRKCD (human) (UniProt Q05655); conditions: compound 10.0 µM
[31] = target: RPS6KA5 KD2 (human) (UniProt O75582); conditions: compound 10.0 µM
[32] = target: BLK (human) (UniProt P51451); conditions: compound 10.0 µM
[33] = target: RPS6KA6 KD2 (human) (UniProt Q9UK32); conditions: compound 10.0 µM
[34] = target: NTRK3 (human) (UniProt Q16288); conditions: compound 10.0 µM
[35] = target: TEK (human) (UniProt Q02763); conditions: compound 10.0 µM
[36] = target: RPS6KA6 KD1 (human) (UniProt Q9UK32); conditions: compound 10.0 µM
[37] = target: SRPK1 (human) (UniProt Q96SB4); conditions: compound 10.0 µM
[38] = target: PDPK1 (human) (UniProt O15530); conditions: compound 10.0 µM
PDPK1 (human), sequence (O15530 whole entry, looked up): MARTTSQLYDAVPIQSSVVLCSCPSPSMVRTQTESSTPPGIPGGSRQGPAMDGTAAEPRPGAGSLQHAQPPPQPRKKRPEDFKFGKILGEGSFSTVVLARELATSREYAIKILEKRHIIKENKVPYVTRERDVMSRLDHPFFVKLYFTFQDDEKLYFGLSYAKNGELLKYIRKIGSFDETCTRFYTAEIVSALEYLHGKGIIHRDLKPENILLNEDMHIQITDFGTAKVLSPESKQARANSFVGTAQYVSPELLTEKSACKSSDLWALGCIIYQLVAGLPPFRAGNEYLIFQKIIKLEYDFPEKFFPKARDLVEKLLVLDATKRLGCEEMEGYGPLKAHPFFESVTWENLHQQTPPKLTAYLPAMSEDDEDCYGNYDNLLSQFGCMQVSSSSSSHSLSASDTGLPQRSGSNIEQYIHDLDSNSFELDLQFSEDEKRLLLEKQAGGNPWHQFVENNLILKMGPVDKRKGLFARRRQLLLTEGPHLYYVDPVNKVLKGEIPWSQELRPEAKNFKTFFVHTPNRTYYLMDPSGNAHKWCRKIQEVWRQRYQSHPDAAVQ

[39] = target: MAPK3 (human) (UniProt P27361); conditions: compound 10.0 µM
MAPK3 (human), sequence (P27361 whole entry, looked up): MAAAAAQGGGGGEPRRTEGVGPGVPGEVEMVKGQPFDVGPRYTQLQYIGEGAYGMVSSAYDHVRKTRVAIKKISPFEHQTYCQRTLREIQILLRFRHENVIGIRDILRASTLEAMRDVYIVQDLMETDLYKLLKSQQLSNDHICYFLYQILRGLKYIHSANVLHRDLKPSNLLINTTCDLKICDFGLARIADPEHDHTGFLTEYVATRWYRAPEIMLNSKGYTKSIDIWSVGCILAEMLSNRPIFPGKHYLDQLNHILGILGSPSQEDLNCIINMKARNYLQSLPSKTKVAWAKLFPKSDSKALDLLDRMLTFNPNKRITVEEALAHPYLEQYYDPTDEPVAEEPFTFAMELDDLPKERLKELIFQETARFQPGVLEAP

[40] = target: CDK3 (human) (UniProt Q00526); conditions: compound 10.0 µM
[41] = tested on: FLT3 (human), P36888 [D835Y]; conditions: compound 10.0 µM
[42] = target: CHEK1 (human) (UniProt O14757); conditions: compound 10.0 µM

MAP3K5 (human), sequence (Q99683 whole entry, looked up): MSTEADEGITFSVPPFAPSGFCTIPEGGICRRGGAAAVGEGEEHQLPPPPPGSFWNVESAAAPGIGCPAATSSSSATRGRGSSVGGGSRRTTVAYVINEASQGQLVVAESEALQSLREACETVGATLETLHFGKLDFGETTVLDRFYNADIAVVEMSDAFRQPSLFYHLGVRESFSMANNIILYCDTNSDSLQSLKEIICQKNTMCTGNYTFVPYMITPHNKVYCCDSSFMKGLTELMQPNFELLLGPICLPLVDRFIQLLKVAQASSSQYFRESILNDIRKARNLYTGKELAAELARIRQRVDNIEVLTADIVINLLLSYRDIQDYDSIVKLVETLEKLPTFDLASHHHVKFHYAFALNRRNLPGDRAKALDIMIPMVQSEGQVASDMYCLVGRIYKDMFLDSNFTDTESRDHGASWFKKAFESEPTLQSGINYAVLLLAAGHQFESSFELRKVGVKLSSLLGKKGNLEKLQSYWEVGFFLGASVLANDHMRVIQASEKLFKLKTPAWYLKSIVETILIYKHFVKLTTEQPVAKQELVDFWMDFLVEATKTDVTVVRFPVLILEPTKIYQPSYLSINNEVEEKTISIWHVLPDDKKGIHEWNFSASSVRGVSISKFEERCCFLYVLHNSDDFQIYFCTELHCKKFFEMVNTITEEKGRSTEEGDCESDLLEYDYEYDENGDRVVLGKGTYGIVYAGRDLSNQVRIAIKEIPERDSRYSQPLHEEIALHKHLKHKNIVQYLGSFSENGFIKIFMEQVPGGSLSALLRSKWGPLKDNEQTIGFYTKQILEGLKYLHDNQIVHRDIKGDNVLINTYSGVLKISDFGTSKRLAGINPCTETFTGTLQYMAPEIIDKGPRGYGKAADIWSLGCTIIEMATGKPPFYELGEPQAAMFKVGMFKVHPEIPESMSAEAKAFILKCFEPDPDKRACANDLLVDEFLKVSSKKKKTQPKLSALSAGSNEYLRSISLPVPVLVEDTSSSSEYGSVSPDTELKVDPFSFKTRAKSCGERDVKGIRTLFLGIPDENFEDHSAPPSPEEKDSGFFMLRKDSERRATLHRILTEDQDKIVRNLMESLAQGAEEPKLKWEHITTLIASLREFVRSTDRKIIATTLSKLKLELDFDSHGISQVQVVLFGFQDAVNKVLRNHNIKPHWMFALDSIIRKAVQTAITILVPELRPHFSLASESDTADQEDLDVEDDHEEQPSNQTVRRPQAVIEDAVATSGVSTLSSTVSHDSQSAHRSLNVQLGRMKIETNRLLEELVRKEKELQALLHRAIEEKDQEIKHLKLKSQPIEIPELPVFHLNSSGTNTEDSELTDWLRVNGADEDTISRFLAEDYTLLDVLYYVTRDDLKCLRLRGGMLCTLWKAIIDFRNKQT
MYLK2 (human), sequence (Q9H1R3 whole entry, looked up): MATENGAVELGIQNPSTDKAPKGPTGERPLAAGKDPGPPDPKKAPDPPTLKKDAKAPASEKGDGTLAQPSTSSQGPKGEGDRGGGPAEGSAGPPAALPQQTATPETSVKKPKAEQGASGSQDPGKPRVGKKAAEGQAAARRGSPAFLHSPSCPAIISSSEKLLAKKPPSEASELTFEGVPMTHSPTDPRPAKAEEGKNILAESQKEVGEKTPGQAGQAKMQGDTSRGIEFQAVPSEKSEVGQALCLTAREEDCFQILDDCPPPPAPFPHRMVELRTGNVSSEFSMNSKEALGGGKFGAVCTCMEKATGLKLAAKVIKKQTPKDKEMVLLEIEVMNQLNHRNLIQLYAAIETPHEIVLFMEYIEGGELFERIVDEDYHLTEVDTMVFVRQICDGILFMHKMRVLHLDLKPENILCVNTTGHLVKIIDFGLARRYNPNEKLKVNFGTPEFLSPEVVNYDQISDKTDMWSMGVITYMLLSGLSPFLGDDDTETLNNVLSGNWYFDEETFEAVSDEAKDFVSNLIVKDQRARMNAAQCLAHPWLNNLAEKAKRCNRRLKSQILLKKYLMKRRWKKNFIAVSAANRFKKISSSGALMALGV

In the case of `CCOc1cc(N2CCC(N3CCCCC3)CC2)ccc1Nc1nc(Nc2ccccc2S(=O)(=O)C(C)C)c2cn[nH]c2n1`, the kinase still bound, per cent of control [1] is reported as 33%, the kinase still bound, per cent of control [2] is reported as 100% and the kinase still bound, per cent of control [3] is reported as 100%. It also gave a kinase still bound, per cent of control [4] of 4.6%, a kinase still bound, per cent of control [5] of 100% and a kinase still bound, per cent of control [6] of 100%. The kinase still bound, per cent of control [7] was 100%, the kinase still bound, per cent of control [8] was 71% and the kinase still bound, per cent of control [9] was 74%. The kinase still bound, per cent of control [10] was 97%, the kinase still bound, per cent of control [11] was 100% and the kinase still bound, per cent of control [12] was 46%. The kinase still bound, per cent of control [13] was 88%, the kinase still bound, per cent of control [14] was 100% and the kinase still bound, per cent of control [15] was 100%. It also gave a kinase still bound, per cent of control [16] of 76%, a kinase still bound, per cent of control [17] of 100% and a kinase still bound, per cent of control [18] of 10%. It also gave a kinase still bound, per cent of control [19] of 100%, an IC50 [20] of 6.5 mM and a kinase still bound, per cent of control ([20]; compound 10.0 µM) of 0.7%. The kinase still bound, per cent of control [21] was 100%, the kinase still bound, per cent of control [22] was 100% and the kinase still bound, per cent of control [23] was 100%. For the same molecule, the kinase still bound, per cent of control [24] was 99%, the kinase still bound, per cent of control [25] was 51% and the kinase still bound, per cent of control [26] was 46%. It also gave a kinase still bound, per cent of control [27] of 100%, a kinase still bound, per cent of control [28] of 100% and a kinase still bound, per cent of control [29] of 100%. It also gave a kinase still bound, per cent of control [30] of 100%, a kinase still bound, per cent of control [31] of 100% and a kinase still bound, per cent of control [32] of 100%. The kinase still bound, per cent of control [33] was 2.1%, the kinase still bound, per cent of control [34] was 54% and the kinase still bound, per cent of control [35] was 100%. It also gave a kinase still bound, per cent of control [36] of 23%, a kinase still bound, per cent of control [37] of 100% and a kinase still bound, per cent of control [38] of 100%. For the same molecule, the kinase still bound, per cent of control [39] was 0.75%, the kinase still bound, per cent of control [40] was 85% and the kinase still bound, per cent of control [41] was 59%. The kinase still bound, per cent of control [42] was 100%.
